Laboratory results from patent publication US6355799B1, “Substituted benzene compounds, process for their preparation, and herbicidal and defoliant compositions containing them” (ISK Americas Incorporated, priority 1997, dated 2002).

Legend:
Type in all cases: in vivo
[1] = test system: redroot pigweed (Amaranthus retroflexus, AMARE); test: Pre-emerge test, greenhouse herbicide activity screening; conditions: pre-emerge, phytotoxicity rating 0-100 at 14 days after application
Summary of the method: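 Rating: 0–100 visual injury, 14 DAA. Application: acetone, 187 l/ha, 15–1000 g ai/ha, flat-fan track sprayer with nozzle 40–45 cm above soil or canopy. Post-emerge runs used 0.25% v/v surfactant on 2–3 leaf plants.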

[2] = test system: barnyardgrass (Echinochloa crus-galli, ECHCG); test: as above; conditions: pre-emerge, phytotoxicity rating 0-100 at 14 days after application
Summary of the method: (§1)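 Plants grown in 10 cm pots of sandy loam mix received acetone-dissolved compounds through a moving flat-fan nozzle. Doses ranged from 15 to 1000 g ai/ha. Pre-emerge pots were seeded one day earlier, post-emerge pots 8–21 days earlier. Fourteen days on, each pot was graded 0–100 for damage.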

[3] = test system: green foxtail (Setaria viridis, SETVI); test: as above; conditions: pre-emerge, phytotoxicity rating 0-100 at 14 days after application
Summary of the method: as §1

[4] = test system: ivyleaf morningglory (Ipomoea hederacea, IPOHE); test: as above; conditions: pre-emerge, phytotoxicity rating 0-100 at 14 days after application
Summary of the method: as §1

[5] = test system: johnsongrass (Sorghum halepense, SORHA); test: as above; conditions: pre-emerge, phytotoxicity rating 0-100 at 14 days after application
Summary of the method: as §1

[6] = test system: lambsquarters (Chenopodium album, CHEAL); test: as above; conditions: pre-emerge, phytotoxicity rating 0-100 at 14 days after application
Summary of the method: as §1

[7] = test system: large crabgrass (Digitaria sanguinalis, DIGSA); test: as above; conditions: pre-emerge, phytotoxicity rating 0-100 at 14 days after application
Summary of the method: as §1

[8] = test system: sicklepod (Cassia obtusifolia, CASOB); test: as above; conditions: pre-emerge, phytotoxicity rating 0-100 at 14 days after application
Summary of the method: as §1

[9] = test system: velvetleaf (Abutilon theophrasti, ABUTH); test: as above; conditions: pre-emerge, phytotoxicity rating 0-100 at 14 days after application
Summary of the method: as §1

[10] = test system: field corn (Zea mays L., var. Dekalb 535, CORN); test: Pre-emerge test, crop safety; conditions: crop damage, pre-emerge, phytotoxicity rating 0-100 at 14 days after application
Summary of the method: as §1

[11] = test system: upland rice (Oryza sp., var. Tebonnet, RICE); test: Pre-emerge test, crop safety; conditions: crop damage, pre-emerge, phytotoxicity rating 0-100 at 14 days after application
Summary of the method: as §1

[12] = test system: barnyardgrass (Echinochloa crus-galli, ECHCG); test: Post-emerge test, greenhouse herbicide activity screening; conditions: post-emerge, phytotoxicity rating 0-100 at 14 days after application
Summary of the method: (§2)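 Fourteen days after spraying, crop and weed injury was graded visually from 0, no effect, to 100, every plant dead. Test substances were dissolved in acetone and applied at 15–1000 g ai/ha with a flat-fan nozzle. Application was either pre-emergence, one day after sowing, or post-emergence at the 2–3 leaf stage.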

[13] = test system: green foxtail (Setaria viridis, SETVI); test: as above; conditions: post-emerge, phytotoxicity rating 0-100 at 14 days after application
Summary of the method: as §2

[14] = test system: ivyleaf morningglory (Ipomoea hederacea, IPOHE); test: as above; conditions: post-emerge, phytotoxicity rating 0-100 at 14 days after application
Summary of the method: as §2

[15] = test system: johnsongrass (Sorghum halepense, SORHA); test: as above; conditions: post-emerge, phytotoxicity rating 0-100 at 14 days after application
Summary of the method: as §2

[16] = test system: lambsquarters (Chenopodium album, CHEAL); test: as above; conditions: post-emerge, phytotoxicity rating 0-100 at 14 days after application
Summary of the method: as §2

[17] = test system: large crabgrass (Digitaria sanguinalis, DIGSA); test: as above; conditions: post-emerge, phytotoxicity rating 0-100 at 14 days after application
Summary of the method: as §2

[18] = test system: redroot pigweed (Amaranthus retroflexus, AMARE); test: as above; conditions: post-emerge, phytotoxicity rating 0-100 at 14 days after application
Summary of the method: as §2

[19] = test system: sicklepod (Cassia obtusifolia, CASOB); test: as above; conditions: post-emerge, phytotoxicity rating 0-100 at 14 days after application
Summary of the method: as §2

[20] = test system: velvetleaf (Abutilon theophrasti, ABUTH); test: as above; conditions: post-emerge, phytotoxicity rating 0-100 at 14 days after application
Summary of the method: as §2

[21] = test system: field corn (Zea mays L., var. Dekalb 535, CORN); test: Post-emerge test, crop safety; conditions: post-emerge, crop damage rating 0-100 at 14 days after application
Summary of the method: (§3)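 Each test used a mechanized track sprayer delivering 187 l/ha of acetone solution at 15–1000 g ai/ha. Post-emerge foliage at 2–3 leaves was treated with added 0.25% v/v non-ionic surfactant and bottom-watered only. Injury was assessed on day 14, where 100 means total kill.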

[22] = test system: upland rice (Oryza sp., var. Tebonnet, RICE); test: Post-emerge test, crop safety; conditions: post-emerge, crop damage rating 0-100 at 14 days after application
Summary of the method: as §3

Cc1c(Cl)cc(F)c(-n2c(=O)cc(C(F)(F)F)n(C)c2=O)c1NC(=O)OCc1ccc([N+](=O)[O-])cc1 [4-64]
Pre-emerge Herbicidal Activity AMARE ([1]; rate 63 g ai/ha): 100 | Pre-emerge Herbicidal Activity AMARE ([1]; rate 250 g ai/ha): 100 | Pre-emerge Herbicidal Activity ECHCG ([2]; rate 63 g ai/ha): 30 | Pre-emerge Herbicidal Activity ECHCG ([2]; rate 250 g ai/ha): 70 | Pre-emerge Herbicidal Activity SETVI ([3]; rate 63 g ai/ha): 100 | Pre-emerge Herbicidal Activity SETVI ([3]; rate 250 g ai/ha): 100 | Pre-emerge Herbicidal Activity IPOHE ([4]; rate 63 g ai/ha): 40 | Pre-emerge Herbicidal Activity IPOHE ([4]; rate 250 g ai/ha): 70 | Pre-emerge Herbicidal Activity SORHA ([5]; rate 63 g ai/ha): 40 | Pre-emerge Herbicidal Activity SORHA ([5]; rate 250 g ai/ha): 80 | Pre-emerge Herbicidal Activity CHEAL ([6]; rate 63 g ai/ha): 100 | Pre-emerge Herbicidal Activity CHEAL ([6]; rate 250 g ai/ha): 100 | Pre-emerge Herbicidal Activity DIGSA ([7]; rate 63 g ai/ha): 100 | Pre-emerge Herbicidal Activity DIGSA ([7]; rate 250 g ai/ha): 100 | Pre-emerge Herbicidal Activity CASOB ([8]; rate 63 g ai/ha): 20 | Pre-emerge Herbicidal Activity CASOB ([8]; rate 250 g ai/ha): 90 | Pre-emerge Herbicidal Activity ABUTH ([9]; rate 63 g ai/ha): 100 | Pre-emerge Herbicidal Activity ABUTH ([9]; rate 250 g ai/ha): 100 | Pre-emerge Herbicidal Activity CORN ([10]; rate 63 g ai/ha): 0 | Pre-emerge Herbicidal Activity CORN ([10]; rate 250 g ai/ha): 45 | Pre-emerge Herbicidal Activity RICE ([11]; rate 63 g ai/ha): 30 | Pre-emerge Herbicidal Activity RICE ([11]; rate 250 g ai/ha): 80 | Post-emerge Herbicidal Activity ECHCG ([12]; 63 g ai/ha): 20 | Post-emerge Herbicidal Activity ECHCG ([12]; 250 g ai/ha): 30 | Post-emerge Herbicidal Activity SETVI ([13]; 63 g ai/ha): 50 | Post-emerge Herbicidal Activity SETVI ([13]; 250 g ai/ha): 80 | Post-emerge Herbicidal Activity IPOHE ([14]; 63 g ai/ha): 100 | Post-emerge Herbicidal Activity IPOHE ([14]; 250 g ai/ha): 100 | Post-emerge Herbicidal Activity SORHA ([15]; 63 g ai/ha): 10 | Post-emerge Herbicidal Activity SORHA ([15]; 250 g ai/ha): 30 | Post-emerge Herbicidal Activity CHEAL ([16]; 63 g ai/ha): 100 | Post-emerge Herbicidal Activity CHEAL ([16]; 250 g ai/ha): 100 | Post-emerge Herbicidal Activity DIGSA ([17]; 63 g ai/ha): 10 | Post-emerge Herbicidal Activity DIGSA ([17]; 250 g ai/ha): 30 | Post-emerge Herbicidal Activity AMARE ([18]; 63 g ai/ha): 100 | Post-emerge Herbicidal Activity AMARE ([18]; 250 g ai/ha): 100 | Post-emerge Herbicidal Activity CASOB ([19]; 63 g ai/ha): 60 | Post-emerge Herbicidal Activity CASOB ([19]; 250 g ai/ha): 100 | Post-emerge Herbicidal Activity ABUTH ([20]; 63 g ai/ha): 100 | Post-emerge Herbicidal Activity ABUTH ([20]; 250 g ai/ha): 100 | Post-emerge Herbicidal Activity CORN ([21]; 63 g ai/ha): 30 | Post-emerge Herbicidal Activity CORN ([21]; 250 g ai/ha): 40 | Post-emerge Herbicidal Activity RICE ([22]; 63 g ai/ha): 15 | Post-emerge Herbicidal Activity RICE ([22]; 250 g ai/ha): 50
